Laboratory results reported in US6673783B2, “Fusidic acid derivatives” (Leo Pharmaceutical Products Ltd. A/S, priority 2001, dated 2004).
≈ marks a conversion by molar mass, not a printed value.

Experiments:
[1] = tested on: Str.mitis Leo id: EG5; experiment: MIC, agar diffusion method, Str.mitis Leo id: EG5; type: cell-based; settings: for MIC: Streptococcus mitis, read-out: MIC value (concentration in μg/ml required for 90% inhibition)
Description: (§1) In vitro investigations have evidenced high potency of compounds of the invention against several bacteria including Staphylococci, Streptococci, Corynebacteriae, Mycobacteriae and Neisseriae. […] The potency of new fusidic acid analogues are estimated by comparing the inhibition of growth of different microorganisms produced by known concentrations of the analogue to be examined and a reference like fusidic acid. The microbiological assay set up is in agreement with the European Pharmacopoeia 3rd edition (1997). It is an agar diffusion method where the same volume of the tested solution is added to cavities in agar. The inhibition zones are function of the concentration of the fusidic acid analogue used. All assays are run with fusidic acid as reference substance. [drawing 7]

[2] = tested on: Str. pyrogenes NCTC8304; experiment: MIC, agar diffusion method, Str. pyrogenes NCTC8304; type: cell-based; settings: for MIC: read-out: MIC value (concentration in μg/ml required for 90% inhibition)
Description: as §1

[3] = tested on: Str. sp. ATCC12449; experiment: MIC, agar diffusion method, Str. sp. ATCC12449; type: cell-based; settings: for MIC: read-out: MIC value (concentration in μg/ml required for 90% inhibition)
Description: as §1

[4] = tested on: S. epidermidis ATCC12228; experiment: MIC, agar diffusion method, S. epidermidis ATCC12228; type: cell-based; settings: for MIC: Staphylococcus epidermidis, read-out: MIC value (concentration in μg/ml required for 90% inhibition)
Description: as §1

[5] = tested on: S. aureus ATC6538P; experiment: MIC, agar diffusion method, S. aureus ATC6538P; type: cell-based; settings: for MIC: Staphylococcus aureus, read-out: MIC value (concentration in μg/ml required for 90% inhibition)
Description: as §1

[6] = tested on: Str. pyrogenes Leo id: EC5; experiment: MIC, agar diffusion method, Str. pyrogenes Leo id: EC5; type: cell-based; settings: for MIC: read-out: MIC value (concentration in μg/ml required for 90% inhibition)
Description: as §1

[7] = tested on: S. aureus CJ232; experiment: MIC, agar diffusion method, S. aureus CJ232 (MRSA); type: cell-based; settings: for MIC: Staphylococcus aureus, read-out: MIC value (concentration in μg/ml required for 90% inhibition)
Description: as §1

[8] = tested on: Str. sp. Leo id: EF6; experiment: MIC, agar diffusion method, Str. sp. Leo id: EF6; type: cell-based; settings: for MIC: read-out: MIC value (concentration in μg/ml required for 90% inhibition)
Description: as §1

[9] = tested on: Str. salvarius LEO-ID EG7; experiment: MIC, agar diffusion method, Str. salvarius LEO-ID EG7; type: cell-based; settings: for MIC: read-out: MIC value (concentration in μg/ml required for 90% inhibition)
Description: as §1

[10] = tested on: Str. faecium Leo-id: E119(P); experiment: MIC, agar diffusion method, Str. faecium Leo-id: E119(P) (penicillin resistant); type: cell-based; settings: for MIC: Enterococcus faecium, read-out: MIC value (concentration in μg/ml required for 90% inhibition)
Description: as §1

[11] = tested on: S. aureus ATCC 29213; experiment: MIC, agar diffusion method, S. aureus ATCC 29213; type: cell-based; settings: for MIC: Staphylococcus aureus, ATCC29213, read-out: MIC value (concentration in μg/ml required for 90% inhibition)
Description: as §1

[12] = tested on: several bacteria including Staphylococci, Streptococci, Corynebacteriae, Mycobacteriae and Neisseriae; experiment: In vitro antibacterial activity, agar diffusion with fusidic acid as reference; type: cell-based; settings: biological tests, see Table 1
Description: as §1

[13] = tested on: S. aureus CJ234 (R); experiment: MIC, agar diffusion method, S. aureus CJ234 (R) (MRSA and Rifampicin resistant); type: cell-based; settings: for MIC: Staphylococcus aureus, read-out: MIC value (concentration in μg/ml required for 90% inhibition)
Description: as §1

[14] = tested on: bacteria; settings: reduction of C-24/C-25 and C-17/C-20 double bonds of fusidic acid; von Daehne et al. 1979; cited from earlier work

| Compound | MIC value (concentration in μg/ml required for 90% inhibition) [1] | MIC value (concentration in μg/ml required for 90% inhibition) [2] | MIC value (concentration in μg/ml required for 90% inhibition) [3] | MIC value (concentration in μg/ml required for 90% inhibition) [4] | MIC value (concentration in μg/ml required for 90% inhibition) [5] | MIC value (concentration in μg/ml required for 90% inhibition) [6] | MIC value (concentration in μg/ml required for 90% inhibition) [7] | MIC value (concentration in μg/ml required for 90% inhibition) [8] | MIC value (concentration in μg/ml required for 90% inhibition) [9] | MIC value (concentration in μg/ml required for 90% inhibition) [10] | MIC value (concentration in μg/ml required for 90% inhibition) [11] | further results |
| --- | --- | --- | --- | --- | --- | --- | --- | --- | --- | --- | --- | --- |
| CC(=O)OC1CC2(C)C(CC(O)C3C4(C)CCC(=O)C(C)C4CCC32C)C12CC2(CCC=C(C)C)C(=O)O (stereo not drawn) [Compound 104, 3-Dehydro-17S,20S-methanofusidic acid] | 64 µg/mL | 16 µg/mL | 64 µg/mL | 0.125 µg/mL | 0.125 µg/mL | 64 µg/mL | 1.0 µg/mL | 64 µg/mL | 64 µg/mL | 0.25 µg/mL | 0.125 µg/mL | – |
| CC(=O)O[C@H]1C[C@@]2(C)C(CC(O)[C@@H]3C2(C)CCC2C(C)C(O)CC[C@@]23C)C12CC2(CCC=C(C)C)C(=O)O (stereo partly drawn) [Compound 101, 17S,20S-Methanofusidic acid] | – | – | – | – | – | – | – | – | – | – | – | MIC [1]: 4 µg/mL (≈ 7.54 µM); MIC [2]: 4 µg/mL (≈ 7.54 µM); antibacterial activity compared to that of fusidic acid (1) [12]: comparable antibacterial activity; MIC [3]: 16 µg/mL (≈ 30.1 µM); MIC [4]: 0.125 µg/mL (≈ 0.236 µM); MIC [5]: 0.125 µg/mL (≈ 0.236 µM); MIC [6]: 16 µg/mL (≈ 30.1 µM); MIC [13]: 0.004 µg/mL (≈ 0.00754 µM); MIC [7]: 0.125 µg/mL (≈ 0.236 µM); MIC [8]: 4 µg/mL (≈ 7.54 µM); MIC [9]: 4 µg/mL (≈ 7.54 µM); MIC [10]: 0.125 µg/mL (≈ 0.236 µM); MIC [11]: 0.125 µg/mL (≈ 0.236 µM); melting point: 243 to 245 °C |
| CC(=O)OC1CC2(C)C(CC(O)C3C4(C)CCC(O)C(C)C4CCC32C)C12CC2(CCCC(C)C)C(=O)O (stereo not drawn) [Compound 102, 24,25-Dihydro-17S,20S-methanofusidic acid] | 64 µg/mL | 16 µg/mL | 64 µg/mL | 0.125 µg/mL | 0.125 µg/mL | 64 µg/mL | 0.25 µg/mL | 64 µg/mL | 16 µg/mL | 1 µg/mL | 0.25 µg/mL | MIC value (concentration in μg/ml required for 90% inhibition) [13]: 0.25 µg/mL |
| CC(C)=CCCC1(C(=O)O)CC12C(OC(=O)C(C)C)CC1(C)C2CC(O)C2C3(C)CCC(O)C(C)C3CCC21C (stereo not drawn) [Compound 107, 16-Deacetoxy-16β-(isopropionyloxy)-17S,20S-methanofusidic acid] | 16 µg/mL | 64 µg/mL | 64 µg/mL | 0.25 µg/mL | 0.25 µg/mL | 64 µg/mL | 1.0 µg/mL | 16 µg/mL | 64 µg/mL | 4 µg/mL | 1.0 µg/mL | – |
| CCOC1CC2(C)C(CC(O)C3C4(C)CCC(O)C(C)C4CCC32C)C12CC2(CCC=C(C)C)C(=O)O (stereo not drawn) [Compound 110, 16-Deacetoxy-16β-ethoxy-17S,20S-methanofusidic acid] | 64 µg/mL | 4 µg/mL | 64 µg/mL | 0.125 µg/mL | 0.125 µg/mL | 64 µg/mL | 1.0 µg/mL | 64 µg/mL | 64 µg/mL | 0.25 µg/mL | 0.125 µg/mL | MIC value (concentration in μg/ml required for 90% inhibition) [13]: 0.004 µg/mL |
| CC(=O)O[C@H]1C[C@@]2(C)C(CC(O)[C@@H]3C2(C)CCC2C(C)C(O)CC[C@@]23C)/C1=C(\CCC=C(C)C)C(=O)O (stereo partly shown) [Fusidic acid (1), fusidic acid] | – | – | – | – | – | – | – | – | – | – | – | MIC [1]: 4 µg/mL (≈ 7.74 µM); MIC [2]: 4 µg/mL (≈ 7.74 µM); MIC [3]: 4 µg/mL (≈ 7.74 µM); MIC [4]: 0.125 µg/mL (≈ 0.242 µM); MIC [5]: 0.125 µg/mL (≈ 0.242 µM); MIC [6]: 4 µg/mL (≈ 7.74 µM); MIC [13]: 0.004 µg/mL (≈ 0.00774 µM); MIC [7]: 0.125 µg/mL (≈ 0.242 µM); MIC [8]: 4 µg/mL (≈ 7.74 µM); MIC [9]: 4 µg/mL (≈ 7.74 µM); MIC [10]: 0.125 µg/mL (≈ 0.242 µM); MIC [11]: 0.125 µg/mL (≈ 0.242 µM) |
| tetrahydrofusidic acid | – | – | – | – | – | – | – | – | – | – | – | antibacterial activity [14]: almost complete loss of activity |
